The values below come from patent US20140135327A1, “N- (2 -AMINOPHENYL) BENZAMIDE DERIVATIVES AS HISTONE DEACETYLASE INHIBITORS” (CANCER RESEARCH TECHNOLOGY LIMITED, priority 2011, published 2014).

Structures are written as SMILES. pIC50: −log10 of the molar value. Where only a bound is given, the exact number is not on record here.

The target of assay [1] is T1, HDAC 3 (Homo sapiens, UniProt O15379). Nature of the assay: Caliper HDAC inhibitor profiling assay (microfluidic mobility-shift), HDAC 3. It counts as biochemical. As to conditions: 1 hour at room temperature, read-out: IC50 (μM) HDAC3. The procedure:
The activity of the compounds of the invention against HDAC 3 (Class I) and HDAC 6 (Class II) can be determined using the Caliper Life Sciences HDAC inhibitor profiling assay, which utilises microfluidic mobility-shift detection.
Reaction buffer: 25 mM Tris/Cl, pH 8.0, 137 mM NaCl, 2.7 mM KCl, 1 mM MgCl2, 0.1 mg/ml BSA (fatty acid free).
Stop Buffer: 100 mM HEPES, pH 7.5, 10 mM EDTA, 0.04% Brij-35, 0.25% CR-3, and 2.5 μM Trichostatin A.
Stopped reactions were assembled in microtiter plate wells by adding 1 μL of the inhibitor compound in DMSO, 15 μL 2× Enzyme, and 15 μL 2× peptide. The reactions were incubated for 1 hour at room temperature, stopped with the addition of 45 μL Stop Solution, and read on the LabChip EZ Reader®. The curves were fit with sigmoidal dose response algorithm using GraphPad Prism.

In a further assay the target is T2, HDAC 2 (Homo sapiens, UniProt Q92769).
T2 construct: HDACs 1, 2, 3, 6, and 8 were expressed as full length fusion proteins; 6xHis; made in house; host or cells: Sf9 cells (baculovirus)
As to the kind of experiment: Fluorescence-based HDAC isoform assay with electrophoretic separation, HDAC 2. It is filed as biochemical. The following applies: isolated 6×His-tagged isoform, 1 μM FAM-labeled acetylated peptide, 17 h at 25° C. The procedure:
(§1) The inhibitory effects of the compounds of Examples 7 and 9 above on HDAC activity were determined using a fluorescence-based assay with electrophoretic separation of substrate and product carried out using a microfluidic system followed by quantitation of fluorescence intensity in the substrate and product peaks.
(§2) The assays were performed using isolated HDAC isoforms that had been expressed as 6×His-tagged fusion proteins in a baculovirus expression system in Sf9 cells. HDACs 1, 2, 3, 6, and 8 were expressed as full length fusion proteins. For HDAC-4 and 7 only catalytic domains were expressed (HDAC-4 CAT and HDAC-7 CAT). The HDAC10 fusion protein was expressed as a carboxy-terminal deletion of 38 amino acids (residues 632-669). HDAC3 was coexpressed with a fragment of the SMRT gene (residues 395-489) to generate enzymatically active protein. Purified proteins were incubated with 1 μM carboxyfluorescein (FAM)-labeled acetylated peptide substrate and test compound for 17 h at 25° C. in HDAC assay buffer containing 100 mM HEPES (pH 7.5), 25 mM KCl, 0.1% BSA, and 0.01% Triton X-100. […] Substrate and product were separated electrophoretically using a Caliper LabChip 3000 system with blue laser excitation and green fluorescence detection (CCD2). The fluorescence intensity in the substrate and product peaks was determined using the Well Analyzer software on the Caliper system. […]

The target in assay [2] is T1, HDAC 3. Nature of the assay: Fluorescence-based HDAC isoform assay with electrophoretic separation, HDAC 3 (coexpressed with SMRT fragment). It is filed as biochemical. As to conditions: HDAC3 coexpressed with SMRT fragment (residues 395-489), 1 μM FAM-labeled acetylated peptide, 17 h at 25° C. The procedure:
as §1, §2

A further assay concerns the target T3, HDAC 8 (Homo sapiens, UniProt Q9BY41).
T3 construct: HDACs 1, 2, 3, 6, and 8 were expressed as full length fusion proteins; 6xHis; made in house; host or cells: Sf9 cells (baculovirus)
T3 sequence (Q9BY41 1-377): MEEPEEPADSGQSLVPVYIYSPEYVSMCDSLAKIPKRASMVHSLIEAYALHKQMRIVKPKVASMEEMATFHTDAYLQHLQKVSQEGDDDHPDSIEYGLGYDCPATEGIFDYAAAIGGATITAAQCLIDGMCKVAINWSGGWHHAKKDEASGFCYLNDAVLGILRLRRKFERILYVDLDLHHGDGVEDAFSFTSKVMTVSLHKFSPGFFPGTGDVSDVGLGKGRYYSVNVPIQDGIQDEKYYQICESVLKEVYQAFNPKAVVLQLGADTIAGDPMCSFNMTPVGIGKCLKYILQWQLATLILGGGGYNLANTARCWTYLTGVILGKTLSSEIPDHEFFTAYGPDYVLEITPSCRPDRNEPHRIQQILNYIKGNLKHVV
Nature of the assay: Fluorescence-based HDAC isoform assay with electrophoretic separation, HDAC 8. It counts as biochemical. As to conditions: isolated 6×His-tagged isoform, 1 μM FAM-labeled acetylated peptide, 17 h at 25° C. The procedure: as §1, §2

A further assay addresses T4, HDAC 4-CAT (Homo sapiens, UniProt P56524).
T4 construct: For HDAC-4 and 7 only catalytic domains were expressed (HDAC-4 CAT and HDAC-7 CAT); 6xHis; made in house; host or cells: Sf9 cells (baculovirus)
As to the kind of experiment: Fluorescence-based HDAC isoform assay with electrophoretic separation, HDAC 4-CAT. It counts as biochemical. As to conditions: catalytic domain only, 1 μM FAM-labeled acetylated peptide, 17 h at 25° C. The procedure: as §1, §2

Assay [3] concerns HL60 cells. As to the kind of experiment: MTS assay, growth inhibition in HL60 cells. It is filed as cell-based. As to conditions: after 3 days (FIG. 2(i) legend: 4 day), absorbance 490 nm relative to untreated cells. The procedure: (§3) HL60 or NB4 cells were diluted in complete growth medium and plated at a density of 5000 cells per 0.1 ml in wells of a 96 well plate. Cells were then treated with various concentrations of the compound of Example 7 (MI-192) or were left untreated as a control in a total volume of 0.2 ml of complete growth medium. After 3 days, relative cell numbers were determined using the MTS assay, as described by the manufacturer (Promega, Southampton, UK). The results shown in FIG. 2(i) are absorbance (490 nm) relative to control cells (untreated cells 100%).
For orientation: Tetrazolium dyes change colour on reduction, which living cells bring about.

Another assay concerns NB4 cells. Nature of the assay: MTS assay, growth inhibition in NB4 cells. As to conditions: after 3 days (FIG. 2(i) legend: 4 day), absorbance 490 nm relative to untreated cells. It counts as cell-based. The procedure: as §3
The subject of assay [4] is HL60 cells. Nature of the assay: CD11b flow cytometry, differentiation in HL60 cells. It counts as cell-based. As to conditions: 3 days. The procedure: HL60 cells were cultured at 0.5×10^6 cells/ml in complete growth medium. Cells (2 ml) were then treated with ATRA (sourced commercially), the compound of Example 7 (MI-192), or left untreated as controls. After 3 days, CD11b expression was determined by flow cytometry using a PE-conjugated anti-CD11b monoclonal antibody.

Assay [5] relates to CYP26 RNA expression in HL60 cells. As to the kind of experiment: CYP26 RNA expression in HL60 cells (Q-RT-PCR). It counts as cell-based. The procedure: HL60 or NB4 cells were cultured at 1.0×10^6 cells/ml in complete growth medium. Cells (10 ml) were then treated with ATRA, the compound of Example 7(MI-192), or left untreated as controls. After 1 day, the expression of CYP26 and BACT RNAs were determined using quantitative PCR (Taqman). The expression of CYP26 RNA was normalised to BACT, and expression in control cells was set to 1.0.

T1 sequence (O15379 whole entry, species assumed): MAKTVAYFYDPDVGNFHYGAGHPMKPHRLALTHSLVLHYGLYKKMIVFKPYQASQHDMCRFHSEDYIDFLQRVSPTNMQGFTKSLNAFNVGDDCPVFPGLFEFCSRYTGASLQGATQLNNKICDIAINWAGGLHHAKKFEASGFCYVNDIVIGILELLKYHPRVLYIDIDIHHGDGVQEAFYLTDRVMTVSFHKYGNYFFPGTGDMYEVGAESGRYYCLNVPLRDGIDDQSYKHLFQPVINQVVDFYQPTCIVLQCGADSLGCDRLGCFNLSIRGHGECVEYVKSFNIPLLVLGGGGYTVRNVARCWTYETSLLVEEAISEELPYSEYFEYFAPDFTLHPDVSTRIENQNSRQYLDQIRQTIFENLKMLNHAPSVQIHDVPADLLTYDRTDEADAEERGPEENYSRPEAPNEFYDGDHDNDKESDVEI
T1 sequence (Q9Y618 395-489 partner limits assumed, species assumed): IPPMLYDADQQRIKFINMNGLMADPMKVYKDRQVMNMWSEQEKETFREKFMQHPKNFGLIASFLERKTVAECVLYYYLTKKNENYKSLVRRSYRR
T4 sequence (P56524 655-1084 limits assumed): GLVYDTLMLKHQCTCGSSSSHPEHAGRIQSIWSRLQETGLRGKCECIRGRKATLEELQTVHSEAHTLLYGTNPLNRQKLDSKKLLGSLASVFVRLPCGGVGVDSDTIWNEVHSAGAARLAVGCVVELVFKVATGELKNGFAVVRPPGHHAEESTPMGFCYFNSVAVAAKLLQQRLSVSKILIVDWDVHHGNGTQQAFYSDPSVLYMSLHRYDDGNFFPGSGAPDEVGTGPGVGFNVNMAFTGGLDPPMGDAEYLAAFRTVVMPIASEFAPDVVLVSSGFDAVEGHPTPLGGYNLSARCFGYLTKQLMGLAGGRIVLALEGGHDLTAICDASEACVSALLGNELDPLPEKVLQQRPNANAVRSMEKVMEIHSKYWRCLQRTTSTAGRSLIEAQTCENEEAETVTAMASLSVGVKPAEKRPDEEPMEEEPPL
T2 sequence (Q92769 whole entry, species assumed, the tested form may be a part): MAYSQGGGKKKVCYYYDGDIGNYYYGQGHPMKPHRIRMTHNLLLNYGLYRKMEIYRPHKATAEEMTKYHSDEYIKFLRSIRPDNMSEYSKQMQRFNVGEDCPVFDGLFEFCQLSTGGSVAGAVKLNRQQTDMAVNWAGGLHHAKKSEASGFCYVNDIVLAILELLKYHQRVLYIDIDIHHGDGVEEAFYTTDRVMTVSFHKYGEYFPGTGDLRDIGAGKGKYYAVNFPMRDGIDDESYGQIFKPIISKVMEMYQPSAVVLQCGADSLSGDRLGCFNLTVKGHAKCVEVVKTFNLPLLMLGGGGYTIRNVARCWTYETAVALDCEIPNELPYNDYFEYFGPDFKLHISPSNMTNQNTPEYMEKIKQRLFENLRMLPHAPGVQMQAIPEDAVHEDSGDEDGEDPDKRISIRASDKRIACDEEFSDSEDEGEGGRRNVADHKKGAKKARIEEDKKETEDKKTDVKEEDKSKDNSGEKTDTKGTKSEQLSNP

Broadly, the IC50 is the midpoint of a concentration-inhibition curve. For orientation: pIC50 means the IC50 on a negative log10 scale, so that one unit is a factor of ten. The low end stands for a high IC50, the high end for a low IC50. For the molecule `C=C1CN(Cc2ccc(C(=O)Nc3ccccc3N)cc2)C(=O)c2ccccc21` [Example 7, N-(2-Aminophenyl)-4-[(4-methylene-1-oxo-3,4-dihydroisoquino-2(1H)-yl)methyl]benzamide], at HDAC 3 [1], the IC50 is 0.22 µM. In addition, the pIC50 against HDAC 2 is 7.26; at HDAC 3 [2], 7.54; against HDAC 8, below 4.52; at HDAC 4-CAT it was 5.04. The “growth inhibition (MTS assay)” value with HL60 cells [3] and in the assay on NB4 cells was “promotes growth inhibition” each time. For the same molecule, the “differentiation (CD11b expression, flow cytometry)” value with HL60 cells [4] was “promotes growth inhibition and differentiation”. Moreover, in assay [5], the “transcription modulating activity compared with ATRA” value is “exceeded that of ATRA”. The “CYP26 RNA expression” value in assay [5] (1 day, Q-RT-PCR, normalised to BACT, control set to 1.0) is “induces expression of CYP26”.
For `C=C1CN(Cc2ccc(C(=O)Nc3ccccc3N)cc2)C(CC(=O)O)c2ccccc21` (stereo not drawn) [Example 9, [2-(4-{[(2-Aminophenyl)amino]carbonyl}benzyl)-4-methylene-1,2,3,4-tetra hydroisoquinolin-1-yl]acetic acid], the IC50 on HDAC 3 [1] stood at 0.78 µM. Besides, the pIC50 at HDAC 2 is 5.68; on HDAC 3 [2], 6.10; at HDAC 8 it was below 4.52; against HDAC 4-CAT it was below 4.52.
